From publication PMC9475448, “What a difference a methylene makes: replacing Glu with Asp or Aad in the Lys-urea-Glu pharmacophore of PSMA-targeting radioligands to reduce kidney and salivary gland uptake” (Theranostics, 2022)
Values joined by “and” are separate entries in the source; they are usually repeats but may differ in a detail not shown here. Equal values may be shown once.

Tests used:
PSMA = biological target: T1, PSMA (Homo sapiens, UniProt Q04609); test: In vitro competition binding assay using LNCaP cells and [18F]DCFPyL as radioligand; settings: displacement of [18F]DCFPyL from LNCaP cells, n = 3; read-out: PSMA binding affinity (Ki)
T1 construct: endogenous in cells; host or cells: LNCaP prostate cancer cells
T1 sequence (Q04609 whole entry): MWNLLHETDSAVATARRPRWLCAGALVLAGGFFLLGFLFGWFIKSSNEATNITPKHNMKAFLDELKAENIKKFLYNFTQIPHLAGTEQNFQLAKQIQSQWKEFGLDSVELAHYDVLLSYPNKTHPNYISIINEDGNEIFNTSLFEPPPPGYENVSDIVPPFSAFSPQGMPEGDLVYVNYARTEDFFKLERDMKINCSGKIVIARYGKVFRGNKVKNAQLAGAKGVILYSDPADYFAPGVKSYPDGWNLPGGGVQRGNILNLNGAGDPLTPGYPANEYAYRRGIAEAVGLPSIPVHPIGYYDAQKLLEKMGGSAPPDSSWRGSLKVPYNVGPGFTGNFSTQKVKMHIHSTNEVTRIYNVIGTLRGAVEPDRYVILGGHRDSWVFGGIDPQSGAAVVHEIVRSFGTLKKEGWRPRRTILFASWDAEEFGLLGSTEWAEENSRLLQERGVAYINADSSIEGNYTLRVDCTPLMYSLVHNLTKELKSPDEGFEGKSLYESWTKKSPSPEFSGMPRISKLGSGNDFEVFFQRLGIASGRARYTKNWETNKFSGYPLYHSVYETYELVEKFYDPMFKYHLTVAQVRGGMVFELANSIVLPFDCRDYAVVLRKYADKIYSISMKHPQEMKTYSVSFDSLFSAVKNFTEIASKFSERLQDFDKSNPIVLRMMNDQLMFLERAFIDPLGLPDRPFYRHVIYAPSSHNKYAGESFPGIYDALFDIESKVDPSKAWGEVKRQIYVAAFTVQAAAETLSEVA
Procedure: The binding assays were conducted following previously published procedures using LNCaP cells and [^18F]DCFPyL as the radioligand [17]-[19]. Briefly, LNCaP cells (400,000/well) were plated onto a 24-well poly-D-lysine coated plate for 48 h. Growth media was removed and replaced with HEPES buffered saline (50 mM HEPES, pH 7.5, 0.9% sodium chloride) and the cells were incubated for 1 h at 37 °C. [^18F]DCFPyL (0.1 nM) was added to each well (in triplicate) containing various concentrations (0.5 mM - 0.05 nM) of tested nonradioactive Ga-complexed compounds. Non-specific binding was determined in the presence of 10 µM non-radiolabeled DCFPyL. The assay mixtures were further incubated for 1 h at 37 °C with gentle agitation. Then, the buffer and radioligand were removed, and cells were washed twice with cold HEPES buffered saline. To harvest the cells, 400 µL of 0.25 % trypsin solution was added to each well. Radioactivity was measured on a PerkinElmer (Waltham, MA) Wizard2 2480 automatic gamma counter. Data analyses of Ki were performed using the nonlinear regression algorithm of GraphPad (San Diego, CA) Prism 7 software.

LNCaP tumor-bearing mice [1] = test: Radioligand therapy study in LNCaP tumor-bearing NRG mice; settings: 500 pmol nonradioactive
LNCaP tumor-bearing mice [2] = test: Ex vivo biodistribution of 68Ga-labeled ligands in LNCaP tumor-bearing NSG mice
[3] = 1 h post-injection, listed as [68Ga]Ga-HTK03161
[4] = 1 h blocked, co-injected with DCFPyL (0.5 mg)
[5] = 1 h post-injection, listed as [68Ga]Ga-HTK03149
[6] = co-injection of DCFPyL (0.5 mg), 1 h post-injection

`O=C([O-])CN1CCN(CC(=O)[O-])CCN(CC(=O)NCC2CCC(C(=O)NC(Cc3c4ccccc4cc4ccccc34)C(=O)NCCCCC(NC(=O)NC(CCCCC(=O)O)C(=O)O)C(=O)O)CC2)CCN(CC(=O)[O-])CC1.[Ga+3]` (single isomer, unassigned) [Ga-HTK03189A] was tested, and the Ki (PSMA) was 550 ± 35.7 nM.

`O=C([O-])CN1CCN(CC(=O)[O-])CCN(CC(=O)NCC2CCC(C(=O)NC(Cc3c4ccccc4cc4ccccc34)C(=O)NCCCCC(NC(=O)NC(CCCC(=O)O)C(=O)O)C(=O)O)CC2)CCN(CC(=O)[O-])CC1.[Lu+3]` (stereo not drawn) [Lu-HTK03149] gave a Median survival (LNCaP tumor-bearing mice [1]) of 18 days and a Ki (PSMA) of 1.57 ± 0.42 nM.

`O=C([O-])CN1CCN(CC(=O)[O-])CCN(CC(=O)NCC2CCC(C(=O)NC(Cc3c4ccccc4cc4ccccc34)C(=O)NCCCCC(NC(=O)NC(CC(=O)O)C(=O)O)C(=O)O)CC2)CCN(CC(=O)[O-])CC1.[68Ga+3]` (stereo not drawn) [[^68Ga]Ga-HTK03161] was tested, and the Adrenal glands uptake (LNCaP tumor-bearing mice [2]; 1 h post-injection) was 0.41 ± 0.07 %IA/g, the Blood uptake (LNCaP tumor-bearing mice [2]; 1 h post-injection) was 1.13 ± 0.19 %IA/g and the “Blood:Salivary gland uptake ratio” value (LNCaP tumor-bearing mice [2]; 1 h post-injection) was 5.08±0.62. For the same compound, the Bone uptake (LNCaP tumor-bearing mice [2]; 1 h post-injection) was 0.11 ± 0.02 %IA/g, the Brain uptake (LNCaP tumor-bearing mice [2]; 1 h post-injection) was 0.02 ± 0.00 %IA/g and the Fat uptake (LNCaP tumor-bearing mice [2]; 1 h post-injection) was 0.15 ± 0.04 %IA/g. It also gave a Heart uptake (LNCaP tumor-bearing mice [2]; 1 h post-injection) of 0.32 ± 0.05 %IA/g, an Intestines uptake (LNCaP tumor-bearing mice [2]; 1 h post-injection) of 0.31 ± 0.09 %IA/g and a Kidneys uptake (LNCaP tumor-bearing mice [2]; 1 h post-injection) of 4.41±1.26 %IA/g. The Lacrimal glands uptake (LNCaP tumor-bearing mice [2]; 1 h post-injection) was 0.12 ± 0.06 %IA/g, the Liver uptake (LNCaP tumor-bearing mice [2]; 1 h post-injection) was 0.28 ± 0.05 %IA/g and the Lungs uptake (LNCaP tumor-bearing mice [2]; 1 h post-injection) was 0.75 ± 0.13 %IA/g. It also gave a Muscle uptake (LNCaP tumor-bearing mice [2]; 1 h post-injection) of 0.15 ± 0.04 %IA/g, a Pancreas uptake (LNCaP tumor-bearing mice [2]; 1 h post-injection) of 0.18 ± 0.03 %IA/g and a Salivary glands uptake (LNCaP tumor-bearing mice [2]; 1 h post-injection) of 0.23±0.05 %IA/g. The Spleen uptake (LNCaP tumor-bearing mice [2]; 1 h post-injection) was 0.27 ± 0.06 %IA/g, the Stomach uptake (LNCaP tumor-bearing mice [2]; 1 h post-injection) was 0.10 ± 0.04 %IA/g and the Testes uptake (LNCaP tumor-bearing mice [2]; 1 h post-injection) was 0.54 ± 0.51 %IA/g. For the same compound, the Thyroid uptake (LNCaP tumor-bearing mice [2]; 1 h post-injection) was 0.29 ± 0.05 %IA/g, the Tumor uptake (LNCaP tumor-bearing mice [2]; 1 h post-injection) was 12.7±1.91 %IA/g and the “Tumor:Blood uptake ratio” value (LNCaP tumor-bearing mice [2]; 1 h post-injection) was 11.4 ± 1.73. The “Tumor:Kidney uptake ratio” value (LNCaP tumor-bearing mice [2]; 1 h post-injection) was 3.03 ± 0.84, the “Tumor:Muscle uptake ratio” value (LNCaP tumor-bearing mice [2]; 1 h post-injection) was 89.4 ± 36.1 and the “Tumor:Salivary gland uptake ratio” value (LNCaP tumor-bearing mice [2]; 1 h post-injection) was 57.2 ± 7.11. The Kidneys uptake (LNCaP tumor-bearing mice [2]; [3]) was 4.41 ± 1.26 %IA/g, the Salivary glands uptake (LNCaP tumor-bearing mice [2]; [3]) was 0.23 ± 0.05 %IA/g and the Tumor uptake (LNCaP tumor-bearing mice [2]; [3]) was 12.7 ± 1.91 %IA/g.

`O=C([O-])CN1CCN(CC(=O)[O-])CCN(CC(=O)NCC2CCC(C(=O)NC(Cc3c4ccccc4cc4ccccc34)C(=O)NCCCCC(NC(=O)NC(CCCC(=O)O)C(=O)O)C(=O)O)CC2)CCN(CC(=O)[O-])CC1.[68Ga+3]` (stereo not drawn) [[^68Ga]Ga-HTK03149] was tested, and the Adrenal glands uptake (LNCaP tumor-bearing mice [2]; [4]) was 0.22 ± 0.03 %IA/g, the Blood uptake (LNCaP tumor-bearing mice [2]; [4]) was 0.67 ± 0.04 %IA/g and the “Blood:Salivary gland uptake ratio” value (LNCaP tumor-bearing mice [2]; [4]) was 4.80 ± 0.54. The Bone uptake (LNCaP tumor-bearing mice [2]; [4]) was 0.07 ± 0.01 %IA/g, the Brain uptake (LNCaP tumor-bearing mice [2]; [4]) was 0.02 ± 0.00 %IA/g and the Fat uptake (LNCaP tumor-bearing mice [2]; [4]) was 0.08 ± 0.01 %IA/g. The Heart uptake (LNCaP tumor-bearing mice [2]; [4]) was 0.19 ± 0.01 %IA/g, the Intestines uptake (LNCaP tumor-bearing mice [2]; [4]) was 0.21 ± 0.04 %IA/g and the Kidneys uptake (LNCaP tumor-bearing mice [2]; [4]) was 1.93 ± 0.39 %IA/g. The Lacrimal glands uptake (LNCaP tumor-bearing mice [2]; [4]) was 0.14 ± 0.08 %IA/g, the Liver uptake (LNCaP tumor-bearing mice [2]; [4]) was 0.22 ± 0.03 %IA/g and the Lungs uptake (LNCaP tumor-bearing mice [2]; [4]) was 0.49 ± 0.03 %IA/g. For the same compound, the Muscle uptake (LNCaP tumor-bearing mice [2]; [4]) was 0.08 ± 0.01 %IA/g, the Pancreas uptake (LNCaP tumor-bearing mice [2]; [4]) was 0.12 ± 0.01 %IA/g and the Salivary glands uptake (LNCaP tumor-bearing mice [2]; [4]) was 0.14 ± 0.01 %IA/g. The Spleen uptake (LNCaP tumor-bearing mice [2]; [4]) was 0.15 ± 0.04 %IA/g, the Stomach uptake (LNCaP tumor-bearing mice [2]; [4]) was 0.04 ± 0.00 %IA/g and the Testes uptake (LNCaP tumor-bearing mice [2]; [4]) was 0.19 ± 0.02 %IA/g. The Thyroid uptake (LNCaP tumor-bearing mice [2]; [4]) was 0.18 ± 0.01 %IA/g, the Tumor uptake (LNCaP tumor-bearing mice [2]; [4]) was 0.77 ± 0.06 %IA/g and the “Tumor:Blood uptake ratio” value (LNCaP tumor-bearing mice [2]; [4]) was 1.16 ± 0.13. For the same compound, the “Tumor:Kidney uptake ratio” value (LNCaP tumor-bearing mice [2]; [4]) was 0.41 ± 0.09, the “Tumor:Muscle uptake ratio” value (LNCaP tumor-bearing mice [2]; [4]) was 7.18 ± 3.58 and the “Tumor:Salivary gland uptake ratio” value (LNCaP tumor-bearing mice [2]; [4]) was 5.53 ± 0.39. For the same compound, the Adrenal glands uptake (LNCaP tumor-bearing mice [2]; 1 h post-injection) was 0.33 ± 0.11 %IA/g, the Blood uptake (LNCaP tumor-bearing mice [2]; 1 h post-injection) was 0.70 ± 0.17 %IA/g and the “Blood:Salivary gland uptake ratio” value (LNCaP tumor-bearing mice [2]; 1 h post-injection) was 3.21±0.64. The Bone uptake (LNCaP tumor-bearing mice [2]; 1 h post-injection) was 0.11 ± 0.04 %IA/g, the Brain uptake (LNCaP tumor-bearing mice [2]; 1 h post-injection) was 0.02 ± 0.00 %IA/g and the Fat uptake (LNCaP tumor-bearing mice [2]; 1 h post-injection) was 0.17 ± 0.15 %IA/g. It also gave a Heart uptake (LNCaP tumor-bearing mice [2]; 1 h post-injection) of 0.21 ± 0.03 %IA/g, an Intestines uptake (LNCaP tumor-bearing mice [2]; 1 h post-injection) of 0.24 ± 0.05 %IA/g and a Kidneys uptake (LNCaP tumor-bearing mice [2]; 1 h post-injection) of 4.15±1.46 %IA/g. It also gave a Lacrimal glands uptake (LNCaP tumor-bearing mice [2]; 1 h post-injection) of 0.15 ± 0.09 %IA/g, a Liver uptake (LNCaP tumor-bearing mice [2]; 1 h post-injection) of 0.25 ± 0.06 %IA/g and a Lungs uptake (LNCaP tumor-bearing mice [2]; 1 h post-injection) of 0.53 ± 0.09 %IA/g. It also gave a Muscle uptake (LNCaP tumor-bearing mice [2]; 1 h post-injection) of 0.11 ± 0.04 %IA/g, a Pancreas uptake (LNCaP tumor-bearing mice [2]; 1 h post-injection) of 0.13 ± 0.02 %IA/g and a Salivary glands uptake (LNCaP tumor-bearing mice [2]; 1 h post-injection) of 0.22±0.06 %IA/g. It also gave a Spleen uptake (LNCaP tumor-bearing mice [2]; 1 h post-injection) of 0.27 ± 0.05 %IA/g, a Stomach uptake (LNCaP tumor-bearing mice [2]; 1 h post-injection) of 0.07 ± 0.01 %IA/g and a Testes uptake (LNCaP tumor-bearing mice [2]; 1 h post-injection) of 0.23 ± 0.13 %IA/g. The Thyroid uptake (LNCaP tumor-bearing mice [2]; 1 h post-injection) was 0.20 ± 0.05 %IA/g, the Tumor uptake (LNCaP tumor-bearing mice [2]; 1 h post-injection) was 19.1±6.37 %IA/g and the “Tumor:Blood uptake ratio” value (LNCaP tumor-bearing mice [2]; 1 h post-injection) was 29.5±15.8. The “Tumor:Kidney uptake ratio” value (LNCaP tumor-bearing mice [2]; 1 h post-injection) was 5.44±3.88 and > 5.0, the “Tumor:Muscle uptake ratio” value (LNCaP tumor-bearing mice [2]; 1 h post-injection) was 185±79.6 and the “Tumor:Salivary gland uptake ratio” value (LNCaP tumor-bearing mice [2]; 1 h post-injection) was 97.3±59.2. It also gave a Kidneys uptake (LNCaP tumor-bearing mice [2]; [5]) of 4.15 ± 1.46 %IA/g, a Salivary glands uptake (LNCaP tumor-bearing mice [2]; [5]) of 0.22 ± 0.06 %IA/g and a Tumor uptake (LNCaP tumor-bearing mice [2]; [5]) of 19.1 ± 6.37 %IA/g. For the same compound, the “Reduction of average uptake in LNCaP tumor xenografts by blocking” value (LNCaP tumor-bearing mice [2]; [6]) was 96%, the “Reduction of average uptake in kidneys by blocking” value (LNCaP tumor-bearing mice [2]; [6]) was 53% and the “Reduction of average uptake in salivary glands by blocking” value (LNCaP tumor-bearing mice [2]; [6]) was 36%.
